Results published in ChEMBL document CHEMBL1121491, “Ultraviolet photoelectron spectroscopy of cyclic amidines. 2. Electronic structure of clonidine and some related 2-(phenylimino)imidazolidines with alpha-adrenergic activity” (1980).

Test system: Rattus norvegicus
Experiment: Hypotensive activity by intravenous administration to rats
Format: functional

Row | Compound | Log 1/ED50
1 | c1cc2c(c(NC3=NCCN3)c1)CCCC2 [TRAMAZOLINE] | 0.47
2 | Cc1ccccc1N=C1NCCN1 | -0.67
3 | Clc1ccccc1N=C1NCCN1 | 0.13
4 | Fc1cccc(F)c1N=C1NCCN1 | -0.41
5 | Clc1cccc(Cl)c1NC1=NCCN1 [CLONIDINE] | 1.99
6 | Cc1cccc(C)c1N=C1NCCN1 | 0.85
7 | c1ccc(NC2=NCCN2)cc1 | -2.1
